The values below come from US20040151761A1, “Methods and compositions utilizing astaxanthin” (priority 2003, published 2004).

“Also recorded” adds a separate entry of the source. Bounds are passed on as bounds.

In series [1] the test system is cutaneous delayed-type hypersensitivity (DTH). In words: Delayed-type hypersensitivity (skin induration) in dogs. It is filed as in vivo, dog.
Procedure: Female Beagle dogs (9 to 10 mo old; 8.2±0.2 kg body weight; Covance Research Products Inc., Kalamazoo, Mich.) were randomly assigned (n=14/treatment) to be fed 0, 10, 20, or 40 mg astaxanthin (109 g astaxanthin/kg oleoresin concentrate from Haematococcus pluvialis, astraZanthin™, La Haye Laboratories, Redmond, Wash.) daily for 16 weeks. Astaxanthin was incorporated into a commercial basal diet (The Iams Co., Lewisburg, Ohio.) and fed two times daily (200 g food/d). […] Blood was collected on wk 0, 6 and 12 for assessing immune function. All dogs were vaccinated (Vanguard 5™, Smithkline Beacham, West Chester, Pa.) twice on week 12 and 14 and blood again taken on week 16 to assess post-vaccination immune responses.
On week 12 (before vaccination) and 16 (after vaccination), all dogs were injected intradermally with 100 microliters of (1) saline (8.5 g/L; negative control), (2) an attenuated polyvalent vaccine containing canine distemper virus, adenovirus type-2, parainfluenza virus and parvovirus (undiluted; Vanguard 5™, Smithkline Beacham, West Chester, Pa.), and (3) phytohemagglutinin (PHA, 0.5 g/L) as previously described (Chew et al., 2000) to assess cutaneous delayed-type hypersensitivity (DTH). Skin induration was measured at 0, 24, 48 and 72 hours post-injection.
The subject of another series is lipid peroxidation. Briefly: Lipid peroxidation in dogs. It is filed as in vivo, dog.
Series [2] concerns mammary and bladder tumor. The note with it: cited from earlier work.
Series [3] in a line: Plasma astaxanthin in dogs fed astaxanthin diets. It is filed as in vivo, dog. The method, then: (§1) Female Beagle dogs (9 to 10 mo old; 8.2±0.2 kg body weight; Covance Research Products Inc., Kalamazoo, Mich.) were randomly assigned (n=14/treatment) to be fed 0, 10, 20, or 40 mg astaxanthin (109 g astaxanthin/kg oleoresin concentrate from Haematococcus pluvialis, astraZanthin™, La Haye Laboratories, Redmond, Wash.) daily for 16 weeks. Astaxanthin was incorporated into a commercial basal diet (The Iams Co., Lewisburg, Ohio.) and fed two times daily (200 g food/d). The diet composition was as follows (g/kg): 85.3 moisture, 275.8 protein, 60.7 ash, 115.0 fat, 9.9 Ca, 9.3 P, 21.3 crude fiber, and 18,914 kJ/kg gross energy; the n-6:n-3 fatty acid ratio was 7.9. Dogs were housed in 2×3 m pens (2 dogs/pen) in a temperature (20 to 22° C.) and light-(14 hour light) controlled facility. Body weight was recorded on week 0, 4, 8, and 16. Blood was collected on wk 0, 6 and 12 for assessing immune function. All dogs were vaccinated (Vanguard 5™, Smithkline Beacham, West Chester, Pa.) twice on week 12 and 14 and blood again taken on week 16 to assess post-vaccination immune responses.

A further series concerns IgG and IgM. In words: Plasma IgG and IgM in cats (ELISA). It is filed as in vivo, cat. Here is the method:
Female domestic short hair cats (8 to 9 months old; 3.2±0.04 kg body weight; Liberty Farms, Waverly, N.Y.) were randomly assigned (n=14/diet) to be fed 0, 1, 5, or 10 mg astaxanthin (109 g astaxanthin/kg oleoresin concentrate from Haematococcus pluvialis, astraZanthin™, La Haye Laboratories, Redmond, Wash.) daily (based on an average intake of 90 g food/day) for 12 weeks. Astaxanthin was incorporated into a commercial basal diet (The Iams Co., Lewisburg, Ohio.) and fed ad libitum. The diet composition was as follows (g/kg): 63.1 moisture, 350.6 protein, 62.7 ash, 213.6 fat, 10.0 Ca, 7.6 P, and 7.1 crude fiber, 21,707 kJ/kg gross energy; the n-6:n-3 fatty acid ratio was 9.9. Cats were housed in a temperature (20 to 22° C.) and light-controlled (14 hour light) facility and body weights were determined at weeks 0, 4, 8 and 12. Blood was collected at week 0 and 8 to assess immune function. To assess the dietary effects of astaxanthin on immune response after an antigenic challenge, all cats were vaccinated (Felocell™, Pfizer, N.Y.) two times (weeks 8 and 10) and blood was collected at week 12 to measure the same immune parameters.
IgG and IgM. Plasma concentrations of IgG (sheep anti-IgG; sensitivity=16 μg/L) and IgM (goat anti-IgM; sensitivity=31 μg/L) were analyzed by ELISA using a commercial kit (Bethyl Lab., Inc., Montgomery, Tex.).
(ELISA stands for enzyme-linked immunosorbent assay.)

The nature of series [4]: Body weight of dogs fed astaxanthin. It is filed as in vivo, dog. Here is the method:
as §1

The conditions of series [5]: compared with other antioxidants (Naguib, 2000; Miki, 1991); cited from earlier work.
Where [6] appears, read: post-vaccination week 12, 10 mg.

For the compound `CC1=C(/C=C/C(C)=C/C=C/C(C)=C/C=C/C=C(C)/C=C/C=C(C)/C=C/C2=C(C)C(=O)C(O)CC2(C)C)C(C)(C)CC(O)C1=O` (stereo not drawn) [astaxanthin, 3,3′-dihydroxy-beta, beta-carotene-4,4′-dione], the “time after intradermal challenge at which skin induration response was observed” value in series [1] (before vaccination) amounted to 48 h; in series [1] (post-vaccination) it was 24 h. In series [1] (nonspecific antigen), the “DTH response to PHA” value is “No similar response was observed; also recorded: but not to PHA”. Besides, in series [1] (versus β-carotene and lutein in dogs), the “DTH response compared with other carotenoids previously investigated” value is listed as “heightened DTH response”. Besides, in series [1] (wk 0 and 8), the “skin induration response to saline, PHA or vaccine” value was “did not significantly influence”. Besides, the “DTH response to intradermal vaccine challenge” value in series [1] (wk 12 (before vaccination), dogs fed 10, 20 and 30 mg (10 to 40 mg)) was “significant DTH response to vaccine; also recorded: higher DTH response at 38 and 72 h; also recorded: increased delayed-type hypersensitivity (DTH) response”; in series [1] (wk 16, after vaccination on wk 12 and 14) it was “observed earlier (at 24 and 38 h); also recorded: similarly enhanced”. Also, the lipid peroxidation result in the series on lipid peroxidation is listed as “reduced lipid peroxidation”. Besides, the mammary tumor growth entry in series [2] (rodents (Chew et al., 1999a)) was “inhibited”. In series [2] (rodents (Tanaka et al., 1994)), the bladder tumor growth result was “inhibited”. The “time at which maximal blood concentrations were observed” value in series [3] (all supplemented dogs) was not above 6 wk. For the same compound, in series [3] (supplemented dogs, through week 16), the plasma astaxanthin concentration result is recorded as “increased in a dose-dependent manner”. The “plasma IgG concentration” value was “only those fed 5 mg astaxanthin were significant” in the series with IgG and IgM (post-vaccination week 12, 5 mg); “still numerically higher” in the series on IgG and IgM (setting [6]); “higher” with IgG and IgM (week 8, 10 mg). Also, the “plasma IgM concentration” value in the series with IgG and IgM (post-vaccination week 12, 5 mg) was “only those fed 5 mg astaxanthin were significant”; in the series with IgG and IgM (setting [6]), “still numerically higher”; with IgG and IgM (week 8, 10 mg), “higher”. Moreover, the “influence of diet on body weight” value in series [4] (dogs fed 0, 10, 20 or 40 mg daily, throughout 16 wk study) was “did not significantly influence body weight”. In series [4] (wk 16, average over all diets), this compound gave a body weight averaged of 8.57 ± 0.11 kg. The “antioxidant activity against certain reactive oxygen species” value in series [5] is “higher than that of beta-carotene, canthaxanthin, lutein, alpha-tocopherol, tunaxanthin, and zeaxanthin”.
